pEC50: −log10 of the molar value.
Molecular target: AMPK
Assay: AMPK activation, enzyme-linked immunosorbent assay
Format: biochemical
Conditions: EC50 for AMPK activation, ELISA
How it was run: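 Read-out: immunodetected kinase activation after compound exposure, run with commercial kit reagents.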

Row | Structure (SMILES) | pEC50
1 | CS(=O)(=O)c1ccc(OC2CCN(C(=O)c3ccc(C(=O)NC4CCN(Cc5cccc(OC(F)(F)F)c5)CC4)cn3)CC2)cc1 [Compound 239, 6-(4-(4-(methylsulfonyl)phenoxy)piperidine-1-carbonyl)-N-(1-(3-(trifluoromethoxy)benzyl)piperidin-4-yl)nicotinamide] | 5.30 to 6.00
2 | COc1ccc(C(=O)C2CCN(C(=O)c3ccc(C(=O)Nc4ccc(Oc5ccc(C#N)cc5)cn4)cn3)CC2)cc1 [Compound 468, N-(5-(4-cyanophenoxy)pyridin-2-yl)-6-(4-(4-methoxybenzoyl)piperidine-1-carbonyl)nicotinamide] | > 6.30
3 | N#Cc1ccc(OC2CCN(C(=O)c3ccc(C(=O)NC4CCN(Cc5ccc(F)cc5)CC4)nc3)CC2)cc1 [Compound 200, 5-(4-(4-cyanophenoxy)piperidine-1-carbonyl)-N-(1-(4-fluorobenzyl)piperidin-4-yl)picolinamide] | > 6.30
4 | COc1ccc(C(=O)C2CCN(C(=O)c3ccc(C(=O)N[C@@H]4CCN(Cc5ccc(OC(C)C)cc5)C[C@H]4F)cn3)CC2)cc1 (relative stereo) [Compound 353, N-((trans)-3-fluoro-1-(4-isopropoxybenzyl)piperidin-4-yl)-6-(4-(4-methoxybenzoyl)piperidine-1-carbonyl)nicotinamide] | > 6.30
5 | N#Cc1ccc(CN2CCC(NC(=O)c3ccc(C(=O)N4CCN(C5CCOCC5)CC4)cn3)CC2)cc1 [Compound 83, N-(1-(4-cyanobenzyl)piperidin-4-yl)-5-(4-(tetrahydro-2H-pyran-4-yl)piperazine-1-carbonyl)picolinamide] | < 5.00
6 | COc1ccc(CN2CCC(NC(=O)c3ccc(C(=O)N4CCC(C(=O)c5ccc(F)cc5F)CC4)nc3)CC2)cc1 [Compound 347, 6-(4-(2,4-difluorobenzoyl)piperidine-1-carbonyl)-N-(1-(4-methoxybenzyl)piperidin-4-yl)nicotinamide] | > 6.30
7 | O=C(NC1CCN(Cc2ccc(F)cc2)CC1)c1ccc(C(=O)N2CCC(C(=O)c3ccc(N4CCCC4)cc3)CC2)nc1 [Compound 381, N-(1-(4-fluorobenzyl)piperidin-4-yl)-6-(4-(4-(pyrrolidin-1-yl)benzoyl)piperidine-1-carbonyl)nicotinamide] | > 6.30
8 | CN(C)C(=O)c1ccc(OC2CCN(C(=O)c3ccc(C(=O)NC4CCN(Cc5ccc(C#N)cc5)CC4)nc3)CC2)cc1 [Compound 357, N-(1-(4-cyanobenzyl)piperidin-4-yl)-5-(4-(4-(dimethylcarbamoyl)phenoxy)piperidine-1-carbonyl)picolinamide] | > 6.30
9 | O=C(NC1CCN(Cc2ccc(F)cc2)CC1)c1ccc(C(=O)N2CCC(C(=O)c3ccc(-n4cccn4)cc3)CC2)nc1 [Compound 392, 6-(4-(4-(1H-pyrazol-1-yl)benzoyl)piperidine-1-carbonyl)-N-(1-(4-fluorobenzyl)piperidin-4-yl)nicotinamide] | > 6.30
10 | COc1ccc(C(=O)C2CCN(C(=O)c3ccc(C(=O)Nc4ccc(Oc5ccc(C#N)cc5)nc4)cn3)CC2)cc1 [Compound 460, N-(6-(4-cyanophenoxy)pyridin-3-yl)-6-(4-(4-methoxybenzoyl)piperidine-1-carbonyl)nicotinamide] | > 6.30
11 | O=C(N[C@@H]1CCN(Cc2ccc(Cl)cc2)C[C@@H]1F)c1ccc(C(=O)N2CCN(Cc3ccc(F)cc3)CC2)cn1 (relative stereo) [Compound 127, N-(cis-1-(4-chlorobenzyl)-3-fluoropiperidin-4-yl)-5-(4-(4-fluorobenzyl)piperazine-1-carbonyl)picolinamide] | > 6.30
12 | N#Cc1ccc(CN2CCC(NC(=O)c3ccc(C(=O)N4CCC(Oc5cccc(C#N)c5)CC4)cn3)CC2)cc1 [Compound 155, N-(1-(4-cyanobenzyl)piperidin-4-yl)-5-(4-(3-cyanophenoxy)piperidine-1-carbonyl)picolinamide] | > 6.30
13 | N#Cc1ccc(Oc2ccc(NC(=O)c3ccc(C(=O)N4CCC(C(=O)c5ccc(F)cc5F)CC4)nc3)cn2)cc1 [Compound 463, N-(6-(4-cyanophenoxy)pyridin-3-yl)-6-(4-(2,4-difluorobenzoyl)piperidine-1-carbonyl)nicotinamide] | > 6.30
14 | O=C(Nc1ccc(Oc2ccc(F)cc2)nc1)c1ccc(C(=O)N2CCC(C(=O)c3ccc(F)cc3F)CC2)nc1 [Compound 348, 6-(4-(2,4-difluorobenzoyl)piperidine-1-carbonyl)-N-(6-(4-fluorophenoxy)pyridin-3-yl)nicotinamide] | > 6.30
15 | COc1ccc(CN2CCC(NC(=O)c3ccc(C(=O)N4CCC(Oc5ccc(C(=O)C6CC6)cc5)CC4)nc3)CC2)cc1 [Compound 458, 6-(4-(4-(cyclopropanecarbonyl)phenoxy)piperidine-1-carbonyl)-N-(1-(4-methoxybenzyl)piperidin-4-yl)nicotinamide] | > 6.30
16 | O=C(c1ccc(C(=O)N2CCN(CCc3ccccc3)CC2)nc1)N1CCN(CCc2ccccc2)CC1 [Compound 92, pyridine-2,5-diylbis((4-phenethylpiperazin-1-yl)methanone)] | < 5.00
17 | O=C(N[C@H]1CC[C@@H](Oc2ccc(F)cc2)CC1)c1ccc(C(=O)N2CCC(Oc3ccc(F)cc3)CC2)cn1 [Compound 312, N-((cis)-4-(4-fluorophenoxy)cyclohexyl)-5-(4-(4-fluorophenoxy)piperidine-1-carbonyl)picolinamide] | > 6.30

Row | Structure (SMILES) | pEC50
18 | COc1ccc(OC2CCN(C(=O)c3ccc(C(=O)NC4CCN(Cc5ccc(F)cc5)CC4)nc3)CC2)cc1 [Compound 183, N-(1-(4-fluorobenzyl)piperidin-4-yl)-5-(4-(4-methoxyphenoxy)piperidine-1-carbonyl)picolinamide] | > 6.30
19 | O=C(c1ccc(N2CCC(Oc3ccc(C(F)(F)F)cc3)CC2)nc1)N1CCN(Cc2ccc(F)cc2)CC1 [Compound 187, (4-(4-fluorobenzyl)piperazin-1-yl)(6-(4-(4-(trifluoromethyl)phenoxy)piperidin-1-yl)pyridin-3-yl)methanone] | 5.30 to 6.00
20 | O=C(Nc1cccc(-c2ccccc2)c1)c1ccc(C(=O)NC2CCN(Cc3ccccc3)CC2)nc1 [Compound 106, N2-(1-benzylpiperidin-4-yl)-N5-(biphenyl-3-yl)pyridine-2,5-dicarboxamide] | 5.00 to 5.30
21 | N#Cc1ccc(CN2CCC(NC(=O)c3ccc(C(=O)N4CCC(Oc5ccc(C(=O)C6CC6)cc5)CC4)nc3)CC2)cc1 [Compound 456, N-(1-(4-cyanobenzyl)piperidin-4-yl)-6-(4-(4-(cyclopropanecarbonyl)phenoxy)piperidine-1-carbonyl)nicotinamide] | > 6.30
22 | COc1ccc(C(=O)C2CCN(C(=O)c3ccc(C(=O)N[C@@H]4CCN(Cc5cc(C)on5)C[C@@H]4F)cn3)CC2)cc1 [Compound 426, N-((3S,4R)-3-fluoro-1-((5-methylisoxazol-3-yl)methyl)piperidin-4-yl)-6-(4-(4-methoxybenzoyl)piperidine-1-carbonyl)nicotinamide] | > 6.30
23 | COc1ccc(C(=O)C2CCN(C(=O)c3ccc(C(=O)NC4CCN(Cc5ccc(N6CCCC6)cc5)CC4)nc3)CC2)cc1 [Compound 194, 5-(4-(4-methoxybenzoyl)piperidine-1-carbonyl)-N-(1-(4-(pyrrolidin-1-yl)benzyl)piperidin-4-yl)picolinamide] | > 6.30
24 | N#Cc1ccc(CN2CCC(NC(=O)c3ccc(C(=O)N4CCC(C(=O)c5ccc(N6CCCC6)cc5)CC4)nc3)CC2)cc1 [Compound 377, N-(1-(4-cyanobenzyl)piperidin-4-yl)-6-(4-(4-(pyrrolidin-1-yl)benzoyl)piperidine-1-carbonyl)nicotinamide] | > 6.30
25 | CC(C)(c1ccc(F)cc1)N1CCN(C(=O)c2ccc(C(=O)NC3CCN(Cc4ccc(C#N)cc4)CC3)nc2)CC1 [Compound 268, N-(1-(4-cyanobenzyl)piperidin-4-yl)-5-(4-(2-(4-fluorophenyl)propan-2-yl)piperazine-1-carbonyl)picolinamide] | > 6.30
26 | N#Cc1ccc(Oc2ccc(NC(=O)c3ccc(C(=O)N4CCN(Cc5ccc(F)cc5)CC4)nc3)cn2)cc1 [Compound 476, N-(6-(4-cyanophenoxy)pyridin-3-yl)-6-(4-(4-fluorobenzyl)piperazine-1-carbonyl)nicotinamide] | > 6.30
27 | O=C(NCc1ccccc1)c1ccc(C(=O)N2CCN(Cc3ccccc3)CC2)cn1 [Compound 116, N-benzyl-5-(4-benzylpiperazine-1-carbonyl)picolinamide] | 5.30 to 6.00
28 | CS(=O)(=O)c1ccc(OC2CCN(C(=O)c3ccc(C(=O)NC4CCN(Cc5ccc(C#N)cc5)CC4)cn3)CC2)cc1 [Compound 397, N-(1-(4-cyanobenzyl)piperidin-4-yl)-6-(4-(4-(methylsulfonyl)phenoxy)piperidine-1-carbonyl)nicotinamide] | > 6.30
29 | O=C(Nc1ccc(Oc2ccc(F)cc2)nc1)c1ccc(C(=O)N2CCC(Oc3ccc(C(=O)C4CC4)cc3)CC2)nc1 [Compound 457, 6-(4-(4-(cyclopropanecarbonyl)phenoxy)piperidine-1-carbonyl)-N-(6-(4-fluorophenoxy)pyridin-3-yl)nicotinamide] | > 6.30
30 | COc1ccc(N2CCC(Nc3ccc(C(=O)NC4CCN(Cc5ccc(C#N)cc5)CC4)nc3)CC2)cc1 [Compound 275, N-(1-(4-cyanobenzyl)piperidin-4-yl)-5-(1-(4-methoxyphenyl)piperidin-4-ylamino)picolinamide] | > 6.30
31 | O=C(c1ccc(Nc2ccc(-c3ccccc3)cc2)nc1)N1CCN(Cc2ccc(F)cc2)CC1 [Compound 37, (6-(4-phenylphenylamino)pyridin-3-yl)(4-(4-fluorobenzyl)piperazin-1-yl)methanone] | 5.00 to 5.30
32 | CS(=O)(=O)c1ccc(C(=O)C2CCN(C(=O)c3ccc(C(=O)NC4CCN(Cc5ccc(C#N)cc5)CC4)nc3)CC2)cc1 [Compound 228, N-(1-(4-cyanobenzyl)piperidin-4-yl)-5-(4-(4-(methylsulfonyl)benzoyl)piperidine-1-carbonyl)picolinamide] | > 6.30
33 | O=C(NC1CCN(Cc2cccc(OC(F)(F)F)c2)CC1)c1ccc(C(=O)N2CCC(C(=O)c3ccc(N4CCCC4)cc3)CC2)nc1 [Compound 441, 6-(4-(4-(pyrrolidin-1-yl)benzoyl)piperidine-1-carbonyl)-N-(1-(3-(trifluoromethoxy)benzyl)piperidin-4-yl)nicotinamide] | > 6.30
